Reference: patent US5691381A, “Hydroxamic and carbocyclic acids as metalloprotease inhibitors” (The DuPont Merck Pharmaceutical Company, priority 1996, dated 1997)

System: cartilage degradation (proteoglycan content in the synovial fluid)
Assay: Acute Cartilage Degradation Rat Model
Format: in vivo
Details: rats, after compound administration
Text: An in vivo model of acute cartilage degradation in rats has been characterized as a method to determine the proteoglycan content in the synovial fluid after the induction of cartilage degradation.

## COc1ccc2c(c1)c(CC(=O)O)c(C)n2C(=O)c1ccc(Cl)cc1 [Indomethacin]
  inhibition of cartilage degradation, as measured by increased proteoglycan content in the synovial fluid: inactive
